Measurements from patent US5658880A, “Sialic acid/fucose based medicaments” (Glycomed Incorporated, priority 1994, dated 1997).

Columns and labels:
[1] = system: L-selectin; experiment: ELISA: inhibition of L-selectin-IgG chimera binding to 2,3 sLe^x glycolipid; parameters: species or system human
Description: (§1) An ELISA assay is preferably used that employs recombinant fusion proteins composed of extracellular portions of the human selectins joined to human immunoglobulin heavy chain CH3, CH2, and hinge regions. See, for example, Walz et al., Science (1990) 250:1132; Aruffo et al., Cell (1991) 67:35; Aruffo et al., Proc. Natl. Acad. Sci. USA. (1992) 89:2292. The assay is well known in the art, and generally consists of the following three steps:
(§2) I. 2,3 sLe^x glycolipid (25 picomole/well) was transferred into microtiter wells as solutions and then evaporated off. Excess, which remained unattached, was washed off with water. The wells were then blocked with 5% BSA at room temperature for an hour and then washed with PBS containing 1 mM calcium.
(§3) II. Preparation of "multivalent" receptor of the Selectin-lgG chimera was carried out by combining the respective chimera (1 μg/mL) with biotin labelled goat F(ab')2 anti-human IgG (Fc specific) and streptavidin-alkaline phosphatase diluted 1:1000 in 1% BSA-PBS (1 mM calcium) and incubating at 37° C. for 15 min. This allowed the soluble multivalent receptor complex to form. III. Potential inhibitors such as the compounds of formula I or II were allowed to react with the soluble receptor at 37° C. for 45 min. This test assumes that optimal binding, between the soluble phase receptor complex and the inhibitor (non natural ligand), would have occurred within this time frame. This solution was then placed in the microtiter wells that were prepared in step I. The plate was incubated at 37° C. for 45 minutes to allow the soluble receptor to bind to its natural ligand. In the presence of a strong inhibitor only a few receptors should be free to bind to the microtiter plate coated with the natural ligand.
(§4) The positive control is the signal produced by the soluble receptor when it is allowed to react with 2,3 sLe^x glycolipid in the microtiter wells in the absence of any inhibitor. This positive control was considered 100% binding. The signal produced by the receptor that had been previously treated with an inhibitor (recorded as O.D.), was divided by the signal produced by the positive control and multiplied by 100 to calculate the % receptor bound to the well in the presence of the inhibitor. The reciprocal of this number is the % inhibition.
as §1, with “was employed” for “is preferably used”, “uses” for “employs”, “USA” for “USA.”
(§5) II. Preparation of "multivalent" receptor of the Selectin-IgG chimera was carried out by combining the respective chimera 1 μg/ml) with biotin labelled goat F(ab')2 anti-human IgG (Fc specific) and streptavidin-alkaline phosphatase diluted 1:1000 in 1% BSA-PBS (1 mM calcium) and incubating at 37° C. for 15 min. This allowed the soluble multivalent receptor complex to form.
(§6) III. Potential inhibitors such as compounds of formula I or II were allowed to react with the soluble receptor at 37° C. for 45 min. This test assumes that optimal binding, between the soluble phase receptor complex and the inhibitor (non natural ligand), would have occurred within this time frame. This solution was then placed in the microtiter wells that were prepared in step I. The plate was incubated at 37° C. for 45 minutes to allow the soluble receptor to bind to its natural ligand. In the presence of a strong inhibitor only a few receptors should be free to bind to the microtiter plate coated with the natural ligand.
(§7) The positive control is the signal produced by the soluble receptor when it is allowed to react with 2,3 sLe^x glycolipid in the microtiter wells in the absence of any inhibitor. This was considered 100% binding. […]

[2] = system: P-selectin; experiment: Flow cytometric assay: inhibition of P-selectin-IgG binding to HL-60 cells; format: cell-based, human; parameters: unit of the concentration uncertain
Method: The interaction of P-selectin and its cellular ligand was studied using a flow cytometric assay (Erbe, D. V. et al., J. Cell Biol. (1993) 120:1227). HL60 cells (maintained in high glucose DME plus 10% Hyclone FBS) were used in this assay. Before staining with P-selectin-IgG the cells were preincubated in Dulbecco's PBS/1% BSA/0.1% sodium azide/1% normal rabbit serum (staining medium) for 30-60 mins on ice. After this initial incubation, 1 μg of P-selectin-IgG was added to 100 μl aliquots of 10^6 cells and incubated for 30-60 mins on ice. The cells were when washed with staining medium and resuspended in 100 μl of staining medium to which was added 2 μl of a phycoerythrin-conjugated F(ab')^2 goat anti-human IgG (Fc specific). The cells were incubated for 15-30 mins on ice, washed twice with staining medium, and resuspended in 0.5 ml of staining medium before flow cytometric analysis on a FACScan (Becton Dickinson & Co., Mountain View, Calif.). To determine that the staining was an interaction of P-selectin with its ligand, the staining was also done in the presence of 10 mM EGTA. To determine the protease sensitivity and the requirement for sialic acid of this interaction, HL-60 cells in D-PBS and 1% BSA were incubated with either trypsin or Arthrobacter or Clostridium sialidases at 37° C. before resuspending in staining medium. To examine the ability of various carbohydrates to inhibit staining, 50 μg/ml fucoidin (Sigma Immunochemicals, St. Louis, Mo.), 50 μg/ml dextran sulfate (Pharmacia Fine Chemicals, Piscataway, N.J.), 10 mg/ml mannose-1-phosphate (Sigma Immunochemicals), or 10 mg/ml mannose-6-phosphate (Sigma Immunochemicals) was added to cells immediately before the addition of the P-selectin chimera. Each carbohydrate was then present until the cells were washed before the addition of the second stage antibody. A potential complication of this FACS assay arose from the use of selectin-IgG chimeras to stain cells which bear human IgG Fc receptors (FcγR; Fanger, M. W., et al., Immunol. Today (1989) 10:92). Adding rabbit IgG (in the form of normal rabbit serum) to the assay medium blocked this binding in most cases.

[3] = system: P-selectin; experiment: ELISA: inhibition of P-selectin-IgG chimera binding to 2,3 sLe^x glycolipid; parameters: species or system human; details: inhibition of binding to 2,3 sLex glycolipid
Description: as §1, §2, §3, §4
as §1, with “was employed” for “is preferably used”, “uses” for “employs”, “USA” for “USA.”
as §5, §6, §7

For `CC(=O)NC1C(O)CC(OCCCCCCOC2OC(C)C(O)C(O)C2O)(C(=O)O)OC1C(O)C(O)CO` [Compound 7, 1-O-α-Neu5Ac-(6-O-α-L-Fucopyranosyl)-Hexane], the “inhibition of L-selectin binding to 2,3 sLe^x glycolipid” value ([1]; FIG. 5 and FIG. 6, result in words) was “inhibit L-selectin binding in a concentration dependent manner”, the IC50 ([1]; inhibition of binding to 2,3 sLex glycolipid) was 1000 to 3000 µM and the “Inhibition (%) of P-selectin-IgG binding to HL-60 cells” value ([2]; 10 (unit uncertain)) was 60%. For the same compound, the “Inhibition (%) of P-selectin-IgG binding to HL-60 cells” value ([2]; 50 (unit uncertain)) was 80%, the “Inhibition (%) of P-selectin-IgG binding to HL-60 cells” value ([2]; 100 (unit uncertain)) was 80% and the IC50 [3] was greater than 4000 µM.
